Consider four molecules from patent US8431395B2, “Pluripotent cells from rat and other species” (The University Court of the University of Edinburgh, priority 2006, dated 2013).

Assay [1] has as its system mouse ES cells. As to the kind of experiment: Culture of pluripotent (ES) cells with inhibitors to promote self renewal. It counts as cell-based. From the text: Mix DMEM/F12-N2 medium with Neurobasal/B27 medium at the ration of 1:1. The media was used to dilute all compounds and grow the cells.
Assay [2] relates to GSK3. As to conditions: cited from earlier work.
The subject of assay [3] is 3i rat cells. Description: Maintenance of undifferentiated rat 3i cells under altered culture conditions. It counts as cell-based. The text has this:
We investigated the effect of altering the culture conditions on maintenance of the undifferentiated state. […] LIF is not included in culture medium, consistent with the sufficiency of 3i for mouse ES cells. Rat cells transferred from 3i to medium supplemented with serum and LIF or BMP and LIF differentiated into various morphologies and lost expression of Oct4 and Nanog (FIG. 13a). These observations indicate that the 3i rat cells have reduced responsiveness to gp130/Stat3 signalling compared with mouse ES cells^20, 21. This may be a significant contributory factor to previous failures to derive rat ES cells.
Cells cultured without inhibitors differentiated into various morphologies (FIG. 13b). […] These findings are consistent with the hypothesis that blockade of FGF/Erk signaling is the critical requirement to sustain the naïve pluripotent state (Ying et al., submitted).
Recently the derivation of cell lines from post-implantation egg cylinder stage epiblast has been reported in mice and rats^3, 10. […] In contrast the 3i rat cells do contribute to chimaeras. They also express Rex1, Stella (Dppa3) and alkaline phosphatase, markers of ES cells and early epiblast that are absent in EpiSCs. Furthermore 3i rat cells can readily be propagated after dissociation into single cells whereas maintained cell-cell contact appears critical for EpiSCs. […]

Regarding `Cc1c[nH]c(-c2cnc(NCCNc3ccc(C#N)cn3)nc2-c2ccc(Cl)cc2Cl)n1` [CHIR 99021], the “results as GSK3 inhibitor in culture of pluripotent cells” value in assay [1] is given as “Good results”. Also, the specificity result in assay [2] is given as “specific for GSK3”.

Turning to `CCN(CC)CCCCNc1ncc2cc(-c3cc(OC)cc(OC)c3)c(NC(=O)NC(C)(C)C)nc2n1` [PD173074], in assay [1] (relative to SU5402), the “fold lower concentration at which fully effective as substitute for SU5402” value is recorded as “about 100 fold”.

Consider `NC(=O)c1ccc(-c2nc(-c3ccccn3)c(-c3ccc4c(c3)OCO4)[nH]2)cc1` [SB431452], for which the “maintenance / propagation of undifferentiated rat cells” value in assay [3] is “did not impede propagation”.

For the molecule CHIR 98014, in assay [1], the “results as GSK3 inhibitor in culture of pluripotent cells” value is recorded as “Good results”. Moreover, the specificity result in assay [2] is “specific for GSK3”.
